Test results: patent publication US7999119B2, “Compounds having CRTH2 antagonist activity” (Oxagen Limited, priority 2006, dated 2011)

system: PGD2 induced eosinophil shape change; assay: Human whole blood eosinophil shape change assay; assay type: cell-based; settings: Homo sapiens, Eosinophil, 10 nm PGD2-induced eosinophil shape change, human whole blood; read-out: Whole Blood IC50
Protocol: Human Whole Blood Eosinophil Shape Change Assay
Compounds 1 to 3 were assayed for their effect on PGD2 induced eosinophil shape change and were compared with Comparator Compounds A to G.
Shape Change Assay in Whole Blood
Compounds (1 μl, 200× final concentration) were added directly to 200 μl whole blood, mixed well and incubated for 15 min, 37° C., 5% CO2. After this time, cell shape was fixed by addition of 300 μl Cytofix™ buffer (BD Biosciences), 15 min on ice. 10 ml RBC lysis buffer was added to the fixed cells, incubated 5 min, at room temperature and centrifuged, 300×g for 5 min. Supernatant (containing lysed red cells) was removed and the lysis step was repeated. Leukocytes were resuspended in 250 μl RPMI/10% FCS and shape change analysed by FACS. Eosinophils were gated out based on their autofluorescence and 2000 eosinophil events were counted per sample. Data were analysed in triplicate.

Q: With `Cc1c(Cc2ccc(S(=O)(=O)c3ccccc3)cc2)c2cc(F)ccc2n1CC(=O)O` [Compound C, 2-{5-Fluoro-2-methyl-3-[4-(phenylsulfonyl)benzyl]-1H-indol-1-yl}acetic acid] as the compound, how does the IC50 read?
A: 273 nM

Q: Which IC50 does the source give for `Cc1c(Cc2ccc(S(=O)(=O)c3ccc(F)cc3)cc2)c2cc(F)ccc2n1CC(=O)O` [Compound E, 2-{5-Fluoro-3-[4-(4-fluorophenylsulfonyl)benzyl]-2-methyl-1H-indol-1-yl}acetic acid] here?
A: 71 nM

Q: How did the IC50 turn out when `Cc1c(Cc2ccc(S(=O)(=O)c3ccc(Cl)cc3)cc2)c2cc(F)ccc2n1CC(=O)O` [Compound D, 2-{3-[4-(4-chlorophenylsulfonyl)benzyl]-5-fluoro-2-methyl-1H-indol-1-yl}acetic acid] was run?
A: 494 nM

Q: With `Cc1c(Cc2cccc(S(=O)(=O)c3ccccc3)c2)c2cc(F)ccc2n1CC(=O)O` [Compound F, 2-{5-Fluoro-2-methyl-3-[3-(phenylsulfonyl)benzyl]-1H-indol-1-yl}acetic acid] as the compound, how does the IC50 read?
A: 1500 nM

Q: For `Cc1c(Cc2cccc(S(=O)(=O)c3ccc(Cl)cc3)c2)c2cc(F)ccc2n1CC(=O)O` [Compound G, 2-{3-[3-(4-chlorophenylsulfonyl)benzyl]-5-fluoro-2-methyl-1H-indol-1-yl}acetic acid], which IC50 is on record?
A: 4660 nM
